Series [1] concerns male Sprague Dawley rats. Nature of the series: gastrointestinal transit (GIT). In kind it is in vivo. As to conditions: single dose (10 mg/kg), p<0.001. The protocol: (§1) A composition of asafoetida and milk thistle extract in a ratio of 1:3 was evaluated for effects on gastric emptying and gastrointestinal transit is Sprague-Dawley rats. Twenty-four male Sprague Dawley (SD) rats (190-200 g) were divided into four groups, each group consisted of six animals with less than 20% mean body weight range. Group I served as control group, Group II referenced standard Domiperidone, Groups III and IV were administered the composition. During experimentation, animals were housed under standard husbandry conditions at a temperature of 22±3° C., relative humidity (30-70%) and a light:dark cycle of 12:12 h. […]
All treatments were given for seven days daily in the morning except reference standard and on day 8th after fasted for 16 h all groups were administered with respective doses of the composition or standard drug Domperidone. Gastric emptying was measured by the use of phenol red method as described previously (Kawachi et al. 2011). […] The amount of phenol red in the supernatant was determined based on the absorbance at 570 nm measured using a microplate reader (Multiskan EX, Thermo Scientific). […] Gastric emptying was calculated using the formula: (1−amount of phenol red in the test sample/amount of phenol red in the standard sample)×100. […]
The composition in beadlet form was evaluated for efficacy in alleviating the delayed gastric emptying using an animal model. […]

In series [2] the test system is male Sprague Dawley rats. Nature of the series: gastric emptying, phenol red method. As to conditions: 10 mg/kg orally, 20 minutes after phenol red meal; control 64.94%. In kind it is in vivo. The protocol: as §1
All treatments were given for seven days daily in the morning except reference standard and on day 8th after fasted for 16 h all groups were administered with respective doses of the composition or standard drug Domperidone. Gastric emptying was measured by the use of phenol red method as described previously (Kawachi et al. 2011). […] The amount of phenol red in the supernatant was determined based on the absorbance at 570 nm measured using a microplate reader (Multiskan EX, Thermo Scientific). […] Gastric emptying was calculated using the formula: (1−amount of phenol red in the test sample/amount of phenol red in the standard sample)×100.
The percentage gastric emptying was assessed after 20 minutes of phenol red meal administration in rats. […]

The nature of series [3]: body weight in the gastric emptying study. In kind it is in vivo, Sprague Dawley rats. As to conditions: 10 mg/kg orally. The protocol: A composition of asafoetida and milk thistle extract in a ratio of 1:3 was evaluated for effects on gastric emptying and gastrointestinal transit is Sprague-Dawley rats. Twenty-four male Sprague Dawley (SD) rats (190-200 g) were divided into four groups, each group consisted of six animals with less than 20% mean body weight range. Group I served as control group, Group II referenced standard Domiperidone, Groups III and IV were administered the composition. During experimentation, animals were housed under standard husbandry conditions at a temperature of 22±3° C., relative humidity (30-70%) and a light:dark cycle of 12:12 h. Animals were allowed free access to pellet feed and UV purified water.
Body weights of each animal group were measured at initiation of experiment, on day 7, and fasting on day 8.

As to `O=c1[nH]c2ccccc2n1CCCN1CCC(n2c(=O)[nH]c3cc(Cl)ccc32)CC1` [Domperidone], the “GIT compared to control” value in the series on male Sprague Dawley rats [1] was “significant increase”. The percentage gastric emptying in the series on male Sprague Dawley rats [2] amounted to 78.86%. For the same compound, the results for the Body weight in series [3] (Day 7), in series [3] (Fasting (Day 8)) and in series [3] (Initial) were 228.69 ± 12.07 g, 211.9 ± 11.72 g and 209.68 ± 9.71 g, respectively.

The record behind these values is patent US11338006B2, “Composition and method for promoting digestive health” (Vidy Herbs, Inc., priority 2018, dated 2022).
